Results from patent EP0323147A2, “1-Aralkyl-1,2-dihydropyrimidine-2-thiones” (SMITHKLINE BECKMAN CORPORATION, priority 1987, dated 1989).
pIC50: −log10 of the molar value. Marks after values point to notes of the source that are not given here.

Key:
[1] = literature, Teresawa et al., Japan Cir. J. 35, 339 (1971); cited from earlier work
DBH = target: T1, DBH (Homo sapiens, UniProt P09172); experiment: in vitro DBH inhibition, conversion of tyramine to octopamine in the presence of DBH; type: biochemical; settings: for percent inhibition: at 10⁻⁵ M compound concentration, IC₅₀ not determined
T1 sequence (P09172 1-617): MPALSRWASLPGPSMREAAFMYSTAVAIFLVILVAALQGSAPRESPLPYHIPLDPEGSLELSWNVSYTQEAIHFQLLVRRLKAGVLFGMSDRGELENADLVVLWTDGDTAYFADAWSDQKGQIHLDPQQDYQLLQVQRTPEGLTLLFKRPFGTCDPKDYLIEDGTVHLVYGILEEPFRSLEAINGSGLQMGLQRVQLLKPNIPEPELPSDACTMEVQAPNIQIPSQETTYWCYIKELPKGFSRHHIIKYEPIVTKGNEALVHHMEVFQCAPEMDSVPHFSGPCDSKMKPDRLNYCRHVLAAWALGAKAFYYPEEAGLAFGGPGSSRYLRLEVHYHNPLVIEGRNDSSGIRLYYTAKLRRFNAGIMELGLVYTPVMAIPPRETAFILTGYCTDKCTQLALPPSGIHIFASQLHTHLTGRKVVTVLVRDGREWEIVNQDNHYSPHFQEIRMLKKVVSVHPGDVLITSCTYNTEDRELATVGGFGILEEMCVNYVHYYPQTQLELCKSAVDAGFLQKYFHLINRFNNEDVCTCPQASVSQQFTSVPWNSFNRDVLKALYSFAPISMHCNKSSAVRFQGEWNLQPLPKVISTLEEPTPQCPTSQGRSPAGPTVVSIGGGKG
Description: Because the compounds of structure (I) inhibit DBH activity they have therapeutic value as diuretic, natriuretic, cardiotonic, antihypertensive, and vasodilatoragents, as well as antiulcerogenic and anti-Parkinson agents. Listed in Table I are the compounds of the invention that were tested for in vitro DBH inhibition by a standard procedure for assaying conversion of tyramine to octopamine in the presence of DBH. J.J. Pisano, et al., Biochim. Biophys. Acta, 43, 566-568 (1960). Octopamine was assayed following sodium periodate oxidation to p-hydroxy-benzaldehyde by measuring spectrophotometric absorbance at 330 nm. In Table I, inhibition is given in micromolar concentration of compound at which DBH activity was halved (IC₅₀). […]

[2] = system: spontaneously hypertensive rats; experiment: mean arterial blood pressure in spontaneously hypertensive rats after oral dosing; type: in vivo; settings: 50 mg/kg orally, compared to vehicle-treated controls
Description: Further, spontaneously hypertensive rats were treated with a suspension or solution of 1-(3,5-fluorobenzyl)-1,2,-dihydropyrimidine-2-thione hydrochloride at a dose of 50 mg/kg orally and mean arterial blood pressure was monitored for 260 minutes using indwelling cannulae in the tail arteries. […] Maximal blood pressure reduction was approximately 25 to 30 mm Hg.

In the case of `CCCCc1ccc(C(=O)O)nc1` [fusaric acid], the toxic effects [1] is given as “hepatotoxic”.
In the case of `Cl.Fc1cc(F)cc(Cn2cccnc2=S)c1` [1-(3,5-Difluorobenzyl)-1,2-dihydropyrimidine 2-thione Hydrochloride], the pIC50 (DBH; concentration of compound at which DBH activity was halved, read-out: DBH IC₅₀) was 5.55 and the “time after treatment to significant blood pressure reductions” value [2] was no more than 30 min.
In the case of `Cl.Fc1cccc(Cn2cccnc2=S)c1` [1-(3-Fluorobenzyl)-1,2-dihydropyrimidine 2-thione Hydrochloride], the percent inhibition (DBH) was 15%^a.
In the case of `S=c1ncccn1Cc1ccccc1` [1-benzyl-1,2-dihydropyrimidine-2-thione, 1-Benzyl-1,2-dihydropyrimidine-2 thione], the percent inhibition (DBH) was 5%^a.
